Experimental data as given in US20230064983A1 (priority 2020, published 2023).
Like-named read-outs stand apart in the source and are kept apart here.

Assays:
[1] = biological target: T1, EGFR with insertion SVD between D770 and N771 (mutEGFR D770_N771insSVD) (Homo sapiens, UniProt P00533, DUP768-770); experiment: Exon20-Mutant-EGFR(D770_N771insSVD) kinase assay (TR-FRET); assay type: biochemical; details: 2 mM ATP, Table 2
T1 construct: amino acids R669 to A1210; made in house; host or cells: Sf9 insect cells (baculovirus)

Bub1 = biological target: T2, Bub1 (Homo sapiens, UniProt O43683); experiment: Bub1 high ATP kinase assay (TR-FRET); assay type: biochemical; details: 2 mM ATP, Table 3
T2 construct: catalytic domain of human Bub1 (amino acids 704-1085); His6 (N); made in house; host or cells: insect cells (Hi5)
Description: Bub1 high ATP Kinase Assay
Bub1-inhibitory activity of compounds of the present invention at a high ATP concentration was quantified employing the Bub1 TR-FRET high ATP kinase assay as described in the following paragraphs.
N-terminally His6-tagged recombinant catalytic domain of human Bub1 (amino acids 704-1085), expressed in insect cells (Hi5) and purified by Ni-NTA affinity chromatography and subsequent size exclusion chromatography, was used as enzyme. As substrate for the kinase reaction the biotinylated peptide biotin-Ahx-[…] (C-terminus in amid form) was used which can be purchased e.g. form the company Biosyntan (Berlin, Germany).
Then the kinase reaction was started by the addition of 2 μl of a solution of Bub1 in assay buffer and the resulting mixture was incubated for a reaction time of 60 min at 22° C. The concentration of Bub1 was adjusted depending of the activity of the enzyme lot and was chosen appropriate to have the assay in the linear range, a typical concentration is about 200 ng/ml. The reaction was stopped by the addition of 3 μl of a solution of TR-FRET detection reagents (0.167 μM streptavidine-XL665 [Cisbio Bioassays, Codolet, France] and 1.67 nM anti-phosho-Serine antibody [Merck Millipore, cat. #35-002] and 0.67 nM LANCE EU-W1024 labeled anti-mouse IgG antibody [Perkin-Elmer, product no. AD0077, as an alternative a Terbium-cryptate-labeled anti-mouse IgG antibody from Cisbio Bioassays can be used]) in an aqueous EDTA-solution (83.3 mM EDTA, 0.2% (w/v) bovine serum albumin in 100 mM HEPES pH 7.5).
The resulting mixture was incubated 1 h at 22° C. to allow the formation of complex between the phosphorylated biotinylated peptide and the detection reagents. Subsequently the amount of phosphorylated substrate was evaluated by measurement of the resonance energy transfer from the Eu-chelate to the streptavidine-XL. Therefore, the fluorescence emissions at 620 nm and 665 nm after excitation at 350 nm was measured in a TR-FRET reader, e.g. a Pherastar or Pherastar FS (both from BMG Labtechnologies, Offenburg, Germany) or a Viewlux (Perkin-Elmer). The ratio of the emissions at 665 nm and at 622 nm was taken as the measure for the amount of phosphorylated substrate.

[2] = biological target: Ba/F3-EGFR-D770_N771insSVD cells (Homo sapiens, UniProt P00533, DUP768-770, cells depend on it); experiment: Ba/F3 cell survival assay, EGFR D770_N771insSVD; assay type: cell-based
Ba/F3-EGFR-WT cells = Ba/F3-EGFR-WT cells (Homo sapiens, UniProt P00533); experiment: Ba/F3 cell survival assay, wild type EGFR; assay type: cell-based
[3] = Bub1 high ATP (2 mM) IC50, TR-FRET
[4] = Cell Titer-Glo, 48 h, without IL-3; Table 4; read-out: BA/F3 (insSVD) IC50
[5] = Cell Titer-Glo, 48 h, with 10 ng/mL EGF; Table 4; read-out: BA/F3 (wild type) IC50

T2 sequence (O43683 704-1085): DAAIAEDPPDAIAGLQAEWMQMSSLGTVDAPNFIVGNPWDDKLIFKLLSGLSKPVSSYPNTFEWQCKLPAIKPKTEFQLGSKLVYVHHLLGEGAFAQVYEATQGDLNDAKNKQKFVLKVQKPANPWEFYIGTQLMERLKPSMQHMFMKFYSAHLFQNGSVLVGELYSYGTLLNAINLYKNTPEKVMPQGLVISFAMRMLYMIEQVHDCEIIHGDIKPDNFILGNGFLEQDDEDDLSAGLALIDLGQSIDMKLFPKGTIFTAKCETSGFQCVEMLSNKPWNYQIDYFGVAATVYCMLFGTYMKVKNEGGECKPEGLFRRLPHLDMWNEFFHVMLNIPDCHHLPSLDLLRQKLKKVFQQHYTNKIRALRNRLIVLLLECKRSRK
Ba/F3-EGFR-WT cells, sequence (P00533 whole entry, looked up, change not shown): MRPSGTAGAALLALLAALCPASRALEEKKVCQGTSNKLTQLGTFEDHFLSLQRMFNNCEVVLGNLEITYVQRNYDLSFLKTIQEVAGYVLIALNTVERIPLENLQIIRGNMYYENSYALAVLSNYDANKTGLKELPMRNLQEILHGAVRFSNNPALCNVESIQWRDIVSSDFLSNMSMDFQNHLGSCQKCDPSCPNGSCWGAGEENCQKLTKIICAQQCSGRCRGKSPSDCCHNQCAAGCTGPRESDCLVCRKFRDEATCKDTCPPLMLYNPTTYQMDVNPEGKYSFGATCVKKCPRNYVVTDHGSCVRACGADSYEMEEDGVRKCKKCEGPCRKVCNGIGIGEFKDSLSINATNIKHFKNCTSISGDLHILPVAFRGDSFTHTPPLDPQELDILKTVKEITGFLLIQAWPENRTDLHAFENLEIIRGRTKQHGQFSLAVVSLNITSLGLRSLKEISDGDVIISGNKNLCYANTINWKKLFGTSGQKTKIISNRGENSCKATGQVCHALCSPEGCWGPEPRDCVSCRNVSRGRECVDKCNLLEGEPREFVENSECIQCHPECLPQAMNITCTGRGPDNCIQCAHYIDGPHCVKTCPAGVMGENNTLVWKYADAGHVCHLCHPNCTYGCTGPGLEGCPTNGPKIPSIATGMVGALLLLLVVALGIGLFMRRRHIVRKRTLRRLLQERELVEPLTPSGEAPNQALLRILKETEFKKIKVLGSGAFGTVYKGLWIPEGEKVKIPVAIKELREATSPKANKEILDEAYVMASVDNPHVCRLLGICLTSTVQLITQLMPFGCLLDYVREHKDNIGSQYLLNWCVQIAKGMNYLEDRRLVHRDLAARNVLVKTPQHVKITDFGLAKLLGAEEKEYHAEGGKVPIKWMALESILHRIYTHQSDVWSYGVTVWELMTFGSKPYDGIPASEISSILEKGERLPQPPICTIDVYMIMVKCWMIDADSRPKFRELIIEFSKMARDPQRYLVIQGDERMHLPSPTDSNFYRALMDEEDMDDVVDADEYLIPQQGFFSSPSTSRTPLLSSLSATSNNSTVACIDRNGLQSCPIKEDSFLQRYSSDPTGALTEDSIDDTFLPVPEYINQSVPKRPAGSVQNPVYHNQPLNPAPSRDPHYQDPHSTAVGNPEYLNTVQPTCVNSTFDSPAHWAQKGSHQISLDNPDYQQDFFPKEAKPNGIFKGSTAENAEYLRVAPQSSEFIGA
T1 sequence (P00533 other isoform, or with tags, fused parts or gaps DUP768-770): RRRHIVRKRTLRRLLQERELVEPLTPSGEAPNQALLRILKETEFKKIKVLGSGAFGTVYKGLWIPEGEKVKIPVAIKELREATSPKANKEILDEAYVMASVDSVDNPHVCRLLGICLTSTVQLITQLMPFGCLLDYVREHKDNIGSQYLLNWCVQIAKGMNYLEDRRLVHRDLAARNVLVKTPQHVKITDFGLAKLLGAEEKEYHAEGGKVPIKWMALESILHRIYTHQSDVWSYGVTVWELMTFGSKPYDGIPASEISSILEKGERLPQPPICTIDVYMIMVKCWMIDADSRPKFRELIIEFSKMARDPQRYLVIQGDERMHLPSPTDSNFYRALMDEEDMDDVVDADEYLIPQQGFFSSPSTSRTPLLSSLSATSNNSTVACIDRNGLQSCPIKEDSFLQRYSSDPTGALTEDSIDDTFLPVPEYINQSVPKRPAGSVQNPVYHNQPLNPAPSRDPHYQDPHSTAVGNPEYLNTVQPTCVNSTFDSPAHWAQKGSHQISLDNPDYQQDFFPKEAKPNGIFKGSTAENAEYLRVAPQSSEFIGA
Ba/F3-EGFR-D770_N771insSVD cells, sequence (P00533 with tags, fused parts or gaps DUP768-770): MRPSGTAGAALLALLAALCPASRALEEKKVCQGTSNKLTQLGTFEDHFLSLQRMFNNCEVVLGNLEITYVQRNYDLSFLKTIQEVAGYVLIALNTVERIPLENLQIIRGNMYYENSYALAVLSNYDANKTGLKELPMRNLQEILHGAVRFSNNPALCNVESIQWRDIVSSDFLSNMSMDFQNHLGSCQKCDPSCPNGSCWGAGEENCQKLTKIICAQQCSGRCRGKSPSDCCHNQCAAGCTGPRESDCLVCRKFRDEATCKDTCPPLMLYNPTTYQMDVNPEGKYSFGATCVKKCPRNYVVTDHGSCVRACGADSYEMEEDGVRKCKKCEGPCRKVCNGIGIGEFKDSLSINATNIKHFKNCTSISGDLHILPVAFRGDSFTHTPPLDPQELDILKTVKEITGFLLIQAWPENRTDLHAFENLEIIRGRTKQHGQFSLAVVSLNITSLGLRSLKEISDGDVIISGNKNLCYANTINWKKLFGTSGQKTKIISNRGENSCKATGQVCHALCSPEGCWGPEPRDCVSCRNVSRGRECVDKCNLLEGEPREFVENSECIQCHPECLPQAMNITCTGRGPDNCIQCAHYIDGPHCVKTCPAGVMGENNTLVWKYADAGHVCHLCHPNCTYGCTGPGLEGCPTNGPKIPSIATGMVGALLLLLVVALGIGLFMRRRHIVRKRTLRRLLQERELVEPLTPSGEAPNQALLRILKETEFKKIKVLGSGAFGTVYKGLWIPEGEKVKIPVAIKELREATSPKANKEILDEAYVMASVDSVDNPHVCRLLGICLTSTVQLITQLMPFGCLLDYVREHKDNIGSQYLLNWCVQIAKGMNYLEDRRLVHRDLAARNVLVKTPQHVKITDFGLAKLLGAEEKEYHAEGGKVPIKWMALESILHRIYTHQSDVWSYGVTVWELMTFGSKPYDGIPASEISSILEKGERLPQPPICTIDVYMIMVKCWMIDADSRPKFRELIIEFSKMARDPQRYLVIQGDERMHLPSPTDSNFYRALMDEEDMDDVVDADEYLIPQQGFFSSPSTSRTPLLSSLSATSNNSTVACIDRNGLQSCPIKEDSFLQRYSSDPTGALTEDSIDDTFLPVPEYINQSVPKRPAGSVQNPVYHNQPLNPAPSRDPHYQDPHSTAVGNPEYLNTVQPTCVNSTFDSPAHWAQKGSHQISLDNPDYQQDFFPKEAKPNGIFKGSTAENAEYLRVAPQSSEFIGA

Compound	mutEGFR (D770_N771insSVD) kinase assay IC50 [1] [nM]	IC50 (Bub1; [3]) [nM]	GI50 [2, 4] [nM]	GI50 (Ba/F3-EGFR-WT cells; [5]) [nM]	IC50 (Bub1; read-out: Bub1 high ATP (2 mM) IC50, TR-FRET) [nM]	GI50 ([2]; read-out: BA/F3 (insSVD) IC50; Cell Titer-Glo, 48 h, without IL-3; Table 4) [nM]	GI50 (Ba/F3-EGFR-WT cells; read-out: BA/F3 (wild type) IC50; Cell Titer-Glo, 48 h, with 10 ng/mL EGF; Table 4) [nM]
COc1c(Cl)cccc1Nc1c(-c2ccncc2OCC2CCCCO2)[nH]c2c1C(=O)N[C@H](C)C2 (mixture of isomers) [Example 27, (6R)-3-(3-chloro-2-methoxy-anilino)-6-methyl-2-[3-(tetrahydropyran-2-ylmethoxy)-4-pyridyl]-1,5,6,7-tetrahydropyrrolo[3,2-c]pyridin-4-one]	0.0973	> 5700	12	305			
COc1c(Cl)cccc1Nc1c(-c2ccncc2OCC2CCCCN2C)[nH]c2c1C(=O)N[C@H](C)C2 (mixture of isomers) [Example 83, (6R)-3-(3-chloro-2-methoxy-anilino)-6-methyl-2-{3-[(1-methyl-2-piperidyl)methoxy]-4-pyridyl}-1,5,6,7-tetrahydropyrrolo[3,2-c]pyridin-4-one]	0.849	> 20000	24.6	669			
COc1c(Cl)cccc1Nc1c(-c2ccncc2OCC2COCCO2)[nH]c2c1C(=O)NC1(CCC1)C2 (single isomer, unassigned) [Example 125, 3-(3-chloro-2-methoxy-anilino)-2-[3-(1,4-dioxan-2-ylmethoxy)-4-pyridyl]spiro[5,7-dihydro-1H-pyrrolo[3,2-c]pyridine-6,1′-cyclobutane]-4-one]	0.235	446	40.4	948			
COc1c(Cl)cccc1Nc1c(-c2ccncc2OC[C@@H]2COCCO2)[nH]c2c1C(=O)NC1(CC1)C2 [Example 111, 3′-(3-chloro-2-methoxyanilino)-2′-(3-{[(2S)-1,4-dioxan-2-yl]methoxy}pyridin-4-yl)-1′,7′-dihydrospiro[cyclopropane-1,6′-pyrrolo[3,2-c]pyridin]-4′(5′H)-one]	0.205	374	19.4	574			
COc1c(Cl)cccc1Nc1c(-c2ccncc2OCC2COCCO2)[nH]c2c1C(=O)N[C@H](C)C2 (single isomer, unassigned) [Example 25]	0.141	5410	25.9	358			
COc1c(Cl)cccc1Nc1c(-c2ccncc2OC[C@@H]2CCCO2)[nH]c2c1C(=O)NC(C(F)(F)F)C2 (mixture of isomers) [Example 38, 3-(3-chloro-2-methoxy-anilino)-2-(3-{[(2S)-tetrahydrofuran-2-yl]methoxy}-4-pyridyl)-6-(trifluoromethyl)-1,5,6,7-tetrahydropyrrolo[3,2-c]pyridin-4-one]	0.188	628	138	996			
COc1c(Cl)cccc1Nc1c(-c2ccncc2OCC2CCCCN2C)[nH]c2c1C(=O)N[C@H](C)C2 (single isomer, unassigned) [Example 84]	0.657	> 20000	16.1	379			
COc1c(Cl)cccc1Nc1c(-c2ccncc2OCC(C)OC)[nH]c2c1C(=O)N[C@H](C)C2 (single isomer, unassigned) [Example 81]	0.157	4870	44	583			
C=CCOCCOc1cnccc1-c1[nH]c2c(c1Nc1cccc(Cl)c1OC)C(=O)NCC2CC=C (stereo not drawn) [Example 114, 7-allyl-2-[3-(2-allyloxyethoxy)-4-pyridyl]-3-(3-chloro-2-methoxy-anilino)-1,5,6,7-tetrahydropyrrolo[3,2-c]pyridin-4-one]	0.181	2070	28.7	347			
COc1c(Cl)cccc1Nc1c(-c2ccncc2OC[C@@H]2CN(CC(F)F)CCO2)[nH]c2c1C(=O)N[C@H](C)C2 [Example 12, (6R)-3-(3-chloro-2-methoxyanilino)-2-(3-{[(2S)-4-(2,2-difluoroethyl)morpholin-2-yl]methoxy}pyridin-4-yl)-6-methyl-1,5,6,7-tetrahydro-4H-pyrrolo[3,2-c]pyridin-4-one]	0.172	> 20000	48.7	719			
Cc1c(Cl)cccc1Nc1c(-c2ccncc2OC[C@@H]2COCCO2)[nH]c2c1C(=O)N[C@H](C)C2 [Example 103, (6R)-3-(3-chloro-2-methylanilino)-2-(3-{[(2S)-1,4-dioxan-2-yl]methoxy}pyridin-4-yl)-6-methyl-1,5,6,7-tetrahydro-4H-pyrrolo[3,2-c]pyridin-4-one]	0.184	1650	32.2	529			
COc1c(Cl)cccc1Nc1c(-c2ccncc2OCC2CCCCN2C)[nH]c2c1C(=O)N[C@H](C)C2 (single isomer, unassigned) [Example 85]	0.948		103	1170	> 20000		
Cc1c(Cl)cccc1Nc1c(-c2ccncc2OC[C@@H]2CCCO2)[nH]c2c1C(=O)N[C@H](C)C2 [Example 104, (6R)-3-(3-chloro-2-methylanilino)-6-methyl-2-(3-{[(2S)-oxolan-2-yl]methoxy}pyridin-4-yl)-1,5,6,7-tetrahydro-4H-pyrrolo[3,2-c]pyridin-4-one]	0.162	3630				32.3	983
COc1c(Cl)cccc1Nc1c(-c2ccncc2OCC[C@@H]2CCCO2)[nH]c2c1C(=O)N[C@H](C)C2 [Example 92, (6R)-3-(3-chloro-2-methoxyanilino)-6-methyl-2-(3-{2-[(2S)-oxolan-2-yl]ethoxy}pyridin-4-yl)-1,5,6,7-tetrahydro-4H-pyrrolo[3,2-c]pyridin-4-one]	0.243	1980	20.2	519			
COc1c(Cl)cccc1Nc1c(-c2ccncc2OC[C@@H]2COCCN2C)[nH]c2c1C(=O)NCC2CCO (single isomer, unassigned) [Example 116]	0.276	13700	169	2030			
COc1c(Cl)cccc1Nc1c(-c2ccncc2OCC2COCCO2)[nH]c2c1C(=O)N[C@@H]1CCC[C@H]21 (mixture of isomers) [Example 52, (5aR,8aS)-3-(3-chloro-2-methoxyanilino)-2-{3-[(1,4-dioxan-2-yl)methoxy]-4-pyridyl}-5,5a,6,7,8,8a-hexahydrocyclopenta[b]pyrrolo[2,3-d]pyridin-4(1)-one]	0.142	10000	38.9	407			
COc1c(Cl)cccc1Nc1c(-c2ccncc2OC[C@@H]2CCCO2)[nH]c2c1C(=O)NC(C)C2 (mixture of isomers) [Example 3, 3-(3-chloro-2-methoxyanilino)-6-methyl-2-(3-{[(2S)-oxolan-2-yl]methoxy}pyridin-4-yl)-1,5,6,7-tetrahydro-4H-pyrrolo[3,2-c]pyridin-4-one]	0.0854	5390	28.5	328			
COc1c(Cl)cccc1Nc1c(-c2ccncc2OCC(C)(C)OC)[nH]c2c1C(=O)NCC2CCO (single isomer, unassigned) [Example 14, 3-(3-chloro-2-methoxyanilino)-7-(2-hydroxyethyl)-2-[3-(2-methoxy-2-methylpropoxy)pyridin-4-yl]-1,5,6,7-tetrahydro-4H-pyrrolo[3,2-c]pyridin-4-one]	0.139	5390	21	262			
